Common to all, as to type: cell-based, human
One assay deals with melanocytes strain 105c. Kind of assay: cAMP levels, radioimmunoassay. As to conditions: 45 min, 0.1 mM IBMX. On the procedure: Dose-response experiments were carried out on three melanocytic strains, namely strains 1513c, 1505b and 105c melanocytes were treated with 1 pM-10 nM CUV9900 or NDP-MSH, or with 0.1-10 nM MSH for 45 minutes in the presence of 0.1 mM isobutyl methylxanthine (IBMX). The results obtained from strain 1513c are shown in Fig. 3, the results obtained from strain 1505b are shown in Fig. 5a and the results obtained from strain 105c are shown in Fig. 5b. The strains 1505b and 1513c were obtained from the same human adult while the strain 105c was obtained from another human adult.
Cyclic AMP is the second messenger for the melanocortin-1 receptor, and assessment is usually performed indicating cellular activity reflective of melanogenesis. Cyclic AMP levels were determined using ^125I-labeled radioimmunoassay kit (Perkin Elmer, Waltham, MA), in human melanocytes that were treated with 0 (control), 0.1-10.0 nM α-MSH, or 0.001-10 nM NDP-MSH or 0.001-10.0 nM CUV 9900 for 45 min. in the presence of 0.1 mM IBMX, a phosphodiesterase inhibitor to prevent cAMP degradation. Triplicate wells were included in each group, and duplicate samples from each well were assayed for cAMP levels. Each data point is the mean percent of control of 6 determinations/group ±S.E.
A general note: Changes in cAMP serve as a functional read-out for many G protein-coupled receptors.

For assay [1], the system named is melanocytic strain 1505b and melanocytic strain 10.3c. The assay is described as follows: UV-induced generation of hydrogen peroxide, luminol luminescence. As to conditions: 1 nM; for UV-induced hydrogen peroxide generation: 105 mJ/cm^2 UV, 0, 30 and 45 minutes after UV irradiation. An excerpt: (§1) With reference to Figs. 10 and 11, melanocytes were irradiated with a bank of FS 20 lamps, with 75% emission in the UVB, and 25% emission in the UVA spectra, with peak emission at 313 nm wavelength. Any emission of UVC rays from the UV source (FS 20 lamps) was blocked by Kodacel filter. Prior to irradiation, the culture medium was replaced by PBS, which was removed after UV exposure, and fresh medium added.
(§2) Melanocytes were irradiated with 105 mJ/cm^2 UV, and treated immediately while in PBS with 0, 1 nM α-MSH or 1 nM CUV9900. Generation of hydrogen peroxide, representative of reactive oxygen species (ROS), was determined by measuring the luminescence of luminol at 0, 30, and 45 min after UV exposure. Triplicate dishes were included in each group, and duplicate samples from each dish were used for measurement of hydrogen peroxide at each time point. Each data point represents the mean of 6 determinations/group ±S.E.

In assay [2] the test system is melanocytic strains 1563c and 102b. Kind of assay: Ultrastructural visualization of DOPA-stained HM, electron microscopy. The conditions noted are these: 0.1 nM or 1 nM CUV9900 or 1 nM MSH. On the procedure:
(§3) With reference to Figs. 14 and 15, two melanocytic strains, a lightly pigmented strain 1563c of Fig. 14 and strain 102b of Fig. 15 were plated in 4-well chamber slides and treated […] with either 0.1 nM or 1 nM CUV9900 or 1 nM MSH for a total of 6 days. Cells were processed for electron microscopy in the presence or absence of histochemical reaction with DOPA. Microtome sections were analyzed in a JEOL JEM-1230 transmission electron microscope and photomicrographs (15,000 X) of the perinuclear area and dendrites were taken for each experimental group.

For the next assay, the system named is melanocyte strain 1513c. The assay is described as follows: Tyrosinase activity as a measure of stability / residual effect. The conditions noted are these: strain 1513c; 1 nM peptide incubated 5-7 hours at 37 degrees Celsius. On the procedure:
To determine the residual effect of CUV9900, as compared to NDP-MSH and α-MSH, on tyrosinase activity, melanocytes were treated with either CUV9900 or NDP-MSH at the concentrations previously described for a total of 3 days. Tyrosinase activity was measured at the end of the 3 days of treatment, and 2 and 4 days after maintenance of the melanocytes in the complete absence of any treatment. With continued reference to Figs. 7, 8 and 9, to determine the stability of CUV9900 versus that of NDP-MSH and α-MSH, melanocytes were treated with 1 nM of each peptide, namely with CUV9900, NDP-MSH and α-MSH, for a total of 6 days, or with 1 nM peptides that were incubated for 5 hours at 37 °C prior to addition to the cultures, every other day, for a total of 6 days. Tyrosinase activity was measured at the end of treatment. In the experiments, cell number represents the mean percent of control of 3 determinations/ group ±SE, and tyrosinase activity data represent the mean percent of control of 6 determinations ±S.E. It should be noted that for the sake of reproducibility the experiment of strain 1513c of Fig. 9 was performed once more 6 months later than the experiment of Fig. 7. […] Melanocytes were treated for 3 days with the designated concentrations of CUV9900, NDP-MSH, or MSH, then maintained in absence of peptides for 4 days. Tyrosinase activity was determined 3 days after treatment. Comparison of stability of CUV9900, NDP-MSH and MSH was compared in 1513c, as shown in Fig. 7; the strain was treated for 6 days with 1 nM CUV9900, NDP-MSH or MSH with fresh medium and peptide replenished every 2 days. Melanocytes were treated according to the same experiment protocol but each peptide was incubated for 5-7 hours at 37 degrees Celsius. […] The assessment of tyrosinase was statistically different from control, as determined by ANOVA (p=<0.05).

For a further assay, the system named is melanocytic strain 10.3c. The assay is described as follows: UV-induced generation of hydrogen peroxide (luminol luminescence). The conditions noted are these: 1 nM, 105 mJ/cm^2 UV, 0, 30 and 45 minutes after UV.
Text: as §1, §2

For the next assay, the system named is melanocytic strain 1505b. Described as above. The conditions noted are these: strain 1505b; 1 nM; 105 mJ/cm^2 UV; 0, 30 and 45 minutes after UV.
Text: as §1, §2

Assay [3] relates to lightly pigmented strain 1563c and strain 102b. Kind of assay: Ultrastructural visualization of DOPA-stained HM (electron microscopy). As to conditions: 0.1 nM or 1 nM CUV9900 or 1 nM MSH; strains 1563c and 102b. On the procedure:
as §3

Non-standard residues stand in square brackets, D forms with d. Nle = CCCC[C@H](N)C(=O)O

With “Ac-Nle-Glu His-D-Phe-Arg-Trp-NH2 (SEQ ID NO: 1) (Ac-[Nle]EH[dF]RW-NH2; SMILES CCCC[C@H](NC(C)=O)C(=O)N[C@@H](CCC(=O)O)C(=O)N[C@@H](Cc1c[nH]cn1)C(=O)N[C@H](Cc1ccccc1)C(=O)N[C@@H](CCCNC(=N)N)C(=O)N[C@@H](Cc1c[nH]c2ccccc12)C(N)=O) [CUV9900]”, the “elevation of cAMP in comparison to NDP” value in the assay with melanocytes strain 105c (0.01 nM and 0.1 nM) was “less elevation of cAMP”. The “cAMP compared with MSH” value in the assay on melanocytes strain 105c (0.1 nM, 1 nM and 10 nM) is reported as “significantly higher”. Further, the “UV-induced hydrogen peroxide generation” value in assay [1] was “significant reduction”. The “hydrogen peroxide generation in comparison with both NDP-MSH and MSH” value in assay [1] (at 45 minutes after irradiation) was “lower hydrogen peroxide generation”. In assay [2], the “melanosomes in the perinuclear area and dendrites” value is “increased mature (stage IV) melanosomes”.
Consider “Ac-Ser-Tyr-Ser-Met-Glu-His-Phe-Arg-Trp-Gly-Lys-Pro-Val-NH2 (SEQ ID NO: 3) [alpha-MSH, reference compound]”, for which the “UV-induced hydrogen peroxide generation” value in assay [1] is “significant reduction”. The “melanosomes in the perinuclear area and dendrites” value in assay [2] is given as “increased mature (stage IV) melanosomes”.
“Ac-Ser-Tyr-Ser-Met-Glu-His-Phe-Arg-Trp-Gly-Lys-Pro-Val-NH2 [alpha-MSH, reference compound]”: the “effect of incubation of the peptide on stimulation of tyrosinase activity” value in the assay on melanocyte strain 1513c is “totally abolished its effect on tyrosinase activity”. For the same substance, the “UV-induced hydrogen peroxide generation” value in the assay on melanocytic strain 10.3c and in the assay with melanocytic strain 1505b was “significant reduction of UV-induced hydrogen peroxide generation” throughout. Also, the “melanosomes, electron microscopy” value in assay [3] was “increased mature (stage IV) melanosomes in the perinuclear area and more so in dendrites”.
